Where two headings read alike, the source gives them in different places.
Key:
Format in all cases: in vivo
[1] = system: red spider mites, Tetranychus urticae; experiment: Potter tower spray on red spider mites, knockdown and mortality; conditions: for percentage control: Spider mites; for activity against spider mites compared with the reference compound: versus flupyradifurone or sulfoxaflor respectively, tables 1 and 3
From the text: The compounds were screened for insecticidal efficacy against aphids, Myzus persicae, Cabbage moth, Mamestra brassicae, diamond black moths, Plutella xylostella, red spider mites, Tetranychus urticae, whitefly, Trialeurodes vaporariorum, in terms of knockdown and mortality.
Myzus persicae, Cabbage moth, Mamestra brassicae, diamond back moths, Plutella xylostella, red spider mites, Tetranychus urticae, whitefly, Trialeurodes vaporariorum, were obtained from specified laboratory cultures. Mixed sex and age aphids and mites, moth larvae and whitefly scale infested leaves were used in the experiments. Environmental conditions were closely monitored and recorded and were within the optimal range of the target species.
The compounds were screened at a range of five concentrations, diluted in DMSO. Some of the compounds were screened against aphids, whitefly and red spider mites and other compounds were screened against cabbage moth, and diamond black moths. A carrier only and an untreated control will also be conducted. Treatments were applied directly onto the insects within Petri dishes, using a potter tower.
Twenty mites and ten aphids, scales and moth larvae were placed within a Petri dish, lined with a suitable leaf disc on a damp cotton wool pad. Scales were already on leaves. The Petri dishes were then sprayed using a potter tower. The number of knocked down and anthropods were assessed at 24 and 48 hours post treatment. Five replicates were be performed for each treatment, for each species.

aphids, Myzus persicae = experiment: Potter tower spray on aphids, knockdown and mortality; conditions: Aphids; for pest or weed control at 0.1 % strength: Myzus persicae, 0.1 % w/v, read-out: Average of % corrected affected
Outline: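 Ten aphids (mixed sex and age) per Petri dish on a leaf disc were sprayed by Potter tower with compounds at five concentrations in DMSO. Knockdown and mortality were scored at 24 and 48 hours, five replicates per treatment, alongside carrier-only and untreated controls.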

[2] = system: caterpillars, a mixture of Mamestra brassicae and Lacanobia oleracea; experiment: Potter tower spray on caterpillars, knockdown and mortality; conditions: Caterpillars, read-out: Average of % corrected affected; for pest or weed control at 0.1 % strength: 0.1 % w/v; for pest or weed control at 0.00625 % strength: 0.00625 % w/v; for pest or weed control at 0.0125 % strength: 0.0125 % w/v; for pest or weed control at 0.025 % strength: 0.025 % w/v; for pest or weed control at 0.05 % strength: 0.05 % w/v
Outline: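 Mixed Mamestra brassicae and Lacanobia oleracea larvae (ten per dish, on leaf disc over damp cotton wool) sprayed directly with a Potter tower at five concentrations in DMSO containing 1% v/v Tween 20, alongside carrier-only and untreated controls. Knockdown and mortality scored at 24 and 48 h post treatment; five replicates per treatment.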

[3] = 24 h, 24 hours post application
[4] = 48 h, 48 hours post application

| Compound | percentage control ([1]; 12.5 g/ha, 24 h) | percentage control ([1]; 12.5 g/ha, 48 h) | percentage control ([1]; 25 g/ha, 24 h) | percentage control ([1]; 25 g/ha, 48 h) | percentage control ([1]; 50 g/ha, 24 h) | percentage control ([1]; 50 g/ha, 48 h) | percentage control ([1]; 100 g/ha, 24 h) | percentage control ([1]; 100 g/ha, 48 h) | percentage control ([1]; 200 g/ha, 24 h) | percentage control ([1]; 200 g/ha, 48 h) | activity against spider mites compared with the reference compound [1] | percentage control (aphids, Myzus persicae; 12.5 g/ha, 24 h) | percentage control (aphids, Myzus persicae; 12.5 g/ha, 48 h) | percentage control (aphids, Myzus persicae; 25 g/ha, 24 h) | percentage control (aphids, Myzus persicae; 25 g/ha, 48 h) | percentage control (aphids, Myzus persicae; 50 g/ha, 24 h) | percentage control (aphids, Myzus persicae; 50 g/ha, 48 h) | percentage control (aphids, Myzus persicae; 100 g/ha, 24 h) | percentage control (aphids, Myzus persicae; 100 g/ha, 48 h) | percentage control (aphids, Myzus persicae; 200 g/ha, 24 h) | also measured |
| --- | --- | --- | --- | --- | --- | --- | --- | --- | --- | --- | --- | --- | --- | --- | --- | --- | --- | --- | --- | --- | --- |
| COC(=O)N=S(C)(=O)C(C)c1ccc(C(F)(F)F)nc1 (stereo not shown) [Compound 13, Methyl N-[methyl-oxo-[1-[6-(trifluoromethyl)-3-pyridyl]ethyl]-λ^6-sulfanylidene]carbamate] | D (A percentage control of from 20 to 39 is indicated by the letter D) | B (A percentage control of from 60 to 79 is indicated by the letter B) | D (A percentage control of from 20 to 39 is indicated by the letter D) | C (A percentage control of from 40 to 59 is indicated by the letter C) | D (A percentage control of from 20 to 39 is indicated by the letter D) | B (A percentage control of from 60 to 79 is indicated by the letter B) | D (A percentage control of from 20 to 39 is indicated by the letter D) | B (A percentage control of from 60 to 79 is indicated by the letter B) | D (A percentage control of from 20 to 39 is indicated by the letter D) | B (A percentage control of from 60 to 79 is indicated by the letter B) | more active than the reference compound | E (A percentage control of from 1 to 19 is indicated by the letter E) | D (A percentage control of from 20 to 39 is indicated by the letter D) | E (A percentage control of from 1 to 19 is indicated by the letter E) | D (A percentage control of from 20 to 39 is indicated by the letter D) | E (A percentage control of from 1 to 19 is indicated by the letter E) | D (A percentage control of from 20 to 39 is indicated by the letter D) | E (A percentage control of from 1 to 19 is indicated by the letter E) | E (A percentage control of from 1 to 19 is indicated by the letter E) | D (A percentage control of from 20 to 39 is indicated by the letter D) | percentage control (aphids, Myzus persicae; 200 g/ha, 48 h): C (A percentage control of from 40 to 59 is indicated by the letter C); pest or weed control at 0.1 % strength (aphids, Myzus persicae; [3]): 20 to 39%; pest or weed control at 0.1 % strength (aphids, Myzus persicae; [4]): 20 to 39%; pest or weed control at 0.1 % strength [2, 3]: 1 to 19%; pest or weed control at 0.00625 % strength [2, 4]: 1 to 19%; pest or weed control at 0.0125 % strength [2, 4]: 1 to 19%; pest or weed control at 0.025 % strength [2, 4]: 1 to 19%; pest or weed control at 0.05 % strength [2, 4]: 1 to 19%; pest or weed control at 0.1 % strength [2, 4]: 20 to 39% |
| CC(c1ccc(C(F)(F)F)nc1)S(C)(=O)=NS(C)(=O)=O (stereo not shown) [Compound 14, N-[methyl-oxo-[1-[6-(trifluoromethyl)-3-pyridyl]ethyl]-λ^6-sulfanylidene]methane-sulfonamide] | D (A percentage control of from 20 to 39 is indicated by the letter D) | C (A percentage control of from 40 to 59 is indicated by the letter C) | C (A percentage control of from 40 to 59 is indicated by the letter C) | C (A percentage control of from 40 to 59 is indicated by the letter C) | D (A percentage control of from 20 to 39 is indicated by the letter D) | C (A percentage control of from 40 to 59 is indicated by the letter C) | C (A percentage control of from 40 to 59 is indicated by the letter C) | B (A percentage control of from 60 to 79 is indicated by the letter B) | B (A percentage control of from 60 to 79 is indicated by the letter B) | B (A percentage control of from 60 to 79 is indicated by the letter B) | more active than the reference compound | E (A percentage control of from 1 to 19 is indicated by the letter E) | D (A percentage control of from 20 to 39 is indicated by the letter D) | E (A percentage control of from 1 to 19 is indicated by the letter E) | E (A percentage control of from 1 to 19 is indicated by the letter E) | E (A percentage control of from 1 to 19 is indicated by the letter E) | D (A percentage control of from 20 to 39 is indicated by the letter D) | E (A percentage control of from 1 to 19 is indicated by the letter E) | D (A percentage control of from 20 to 39 is indicated by the letter D) | E (A percentage control of from 1 to 19 is indicated by the letter E) | percentage control (aphids, Myzus persicae; 200 g/ha, 48 h): D (A percentage control of from 20 to 39 is indicated by the letter D); pest or weed control at 0.1 % strength (aphids, Myzus persicae; [3]): 20 to 39%; pest or weed control at 0.1 % strength (aphids, Myzus persicae; [4]): 20 to 39%; pest or weed control at 0.1 % strength [2, 3]: 1 to 19%; pest or weed control at 0.00625 % strength [2, 4]: 1 to 19%; pest or weed control at 0.0125 % strength [2, 4]: 1 to 19%; pest or weed control at 0.025 % strength [2, 4]: 1 to 19%; pest or weed control at 0.05 % strength [2, 4]: 1 to 19%; pest or weed control at 0.1 % strength [2, 4]: 1 to 19% |

Reference: patent US20160212997A1, “AGRICULTURAL CHEMICALS” (REDAG CROP PROTECTION LTD, priority 2013, published 2016)
